Laboratory results: patent publication US20090136482A1, “DRUG TARGET PROTEIN AND TARGET GENE, AND SCREENING METHOD” (REVERSE PROTEOMICS RESEARCH INSTITUTE CO., LTD., priority 2005, published 2009)

Assays:
FLJ12514-derived protein = FLJ12514-derived protein (Homo sapiens, UniProt Q9H9A5); experiment: Biacore S51 surface plasmon resonance interaction analysis with FLJ12514-derived protein; format: binding; conditions: for interaction with the protein (dose-dependent binding amount, saturation at high doses): FLJ12514-derived protein, Biacore S51
FLJ12514-derived protein, sequence (Q9H9A5 whole entry): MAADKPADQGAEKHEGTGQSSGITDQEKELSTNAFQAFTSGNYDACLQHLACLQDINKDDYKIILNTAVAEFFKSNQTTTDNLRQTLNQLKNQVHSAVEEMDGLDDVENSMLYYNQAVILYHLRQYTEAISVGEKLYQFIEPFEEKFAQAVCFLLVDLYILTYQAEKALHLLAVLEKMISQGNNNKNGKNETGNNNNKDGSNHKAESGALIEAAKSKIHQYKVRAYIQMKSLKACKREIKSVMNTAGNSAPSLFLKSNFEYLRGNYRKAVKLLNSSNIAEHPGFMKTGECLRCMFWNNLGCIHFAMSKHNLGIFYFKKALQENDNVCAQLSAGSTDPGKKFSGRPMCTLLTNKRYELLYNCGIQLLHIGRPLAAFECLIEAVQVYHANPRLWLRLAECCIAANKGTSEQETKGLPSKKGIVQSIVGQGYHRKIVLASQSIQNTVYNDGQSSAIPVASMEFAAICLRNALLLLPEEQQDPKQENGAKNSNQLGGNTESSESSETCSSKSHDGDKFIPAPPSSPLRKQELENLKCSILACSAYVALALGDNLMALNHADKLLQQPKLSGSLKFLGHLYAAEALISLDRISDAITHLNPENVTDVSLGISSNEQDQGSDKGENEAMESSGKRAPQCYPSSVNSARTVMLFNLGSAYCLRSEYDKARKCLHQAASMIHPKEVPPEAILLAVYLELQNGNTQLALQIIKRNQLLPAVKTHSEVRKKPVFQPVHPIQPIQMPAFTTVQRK
Description: (§1) The obtained plasmids were subjected to phenol/chloroform treatment and the inactivation treatment of RNase according to the PROTEIOS (TOYOBO) protocol to give purified expression plasmids.
(§2) The surface of a CM5 sensor chip for S51 (commercially available from Biacore) was converted to NTA using 1 M EDC, 1.33 M NHS, and 16 mg/ml AB-NTA (pH 9.2) to give an NTA sensor chip for S51. […] The immobilization was performed by sequentially injecting 0.5 M NiCl2, 0.4 M EDC, […], a ligand (protein) solution, and 1 M ethanolamine (pH 8.5) into the passage system of Biacore S51. […] For the correction (solvent correction) of the effect of DMSO contained in the compound solutions and the running buffer, the same solutions as the running buffer containing 3.8 to 5.1% DMSO (8 points) were prepared to perform correction based on the measurement results of these solutions.

FLJ12502-derived protein = target: T1, FLJ12502-derived protein (Homo sapiens, UniProt Q7Z3D6); experiment: Biacore S51 surface plasmon resonance interaction analysis with FLJ12502-derived protein
T1 sequence (Q7Z3D6 1-616 isoform Q7Z3D6-1): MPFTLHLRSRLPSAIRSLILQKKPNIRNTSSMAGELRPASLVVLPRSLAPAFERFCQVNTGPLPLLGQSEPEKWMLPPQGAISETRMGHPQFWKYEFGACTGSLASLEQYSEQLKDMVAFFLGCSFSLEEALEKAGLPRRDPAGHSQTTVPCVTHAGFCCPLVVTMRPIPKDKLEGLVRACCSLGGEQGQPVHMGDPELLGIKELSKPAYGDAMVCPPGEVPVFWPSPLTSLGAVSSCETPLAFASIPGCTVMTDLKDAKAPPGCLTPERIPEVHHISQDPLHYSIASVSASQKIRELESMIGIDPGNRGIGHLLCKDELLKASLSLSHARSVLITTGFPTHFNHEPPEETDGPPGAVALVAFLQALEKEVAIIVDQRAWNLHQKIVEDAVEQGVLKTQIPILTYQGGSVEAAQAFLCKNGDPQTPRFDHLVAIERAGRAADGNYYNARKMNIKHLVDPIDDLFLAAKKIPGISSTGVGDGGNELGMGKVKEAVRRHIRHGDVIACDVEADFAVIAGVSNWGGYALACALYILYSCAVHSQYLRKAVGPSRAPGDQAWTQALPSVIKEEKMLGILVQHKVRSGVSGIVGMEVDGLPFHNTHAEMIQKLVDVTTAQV

FLJ14583-derived protein = target: T2, FLJ14583-derived protein (Homo sapiens, UniProt Q12816); experiment: Biacore S51 surface plasmon resonance interaction analysis with FLJ14583-derived protein; format: binding
T2 sequence (Q12816 1-1431): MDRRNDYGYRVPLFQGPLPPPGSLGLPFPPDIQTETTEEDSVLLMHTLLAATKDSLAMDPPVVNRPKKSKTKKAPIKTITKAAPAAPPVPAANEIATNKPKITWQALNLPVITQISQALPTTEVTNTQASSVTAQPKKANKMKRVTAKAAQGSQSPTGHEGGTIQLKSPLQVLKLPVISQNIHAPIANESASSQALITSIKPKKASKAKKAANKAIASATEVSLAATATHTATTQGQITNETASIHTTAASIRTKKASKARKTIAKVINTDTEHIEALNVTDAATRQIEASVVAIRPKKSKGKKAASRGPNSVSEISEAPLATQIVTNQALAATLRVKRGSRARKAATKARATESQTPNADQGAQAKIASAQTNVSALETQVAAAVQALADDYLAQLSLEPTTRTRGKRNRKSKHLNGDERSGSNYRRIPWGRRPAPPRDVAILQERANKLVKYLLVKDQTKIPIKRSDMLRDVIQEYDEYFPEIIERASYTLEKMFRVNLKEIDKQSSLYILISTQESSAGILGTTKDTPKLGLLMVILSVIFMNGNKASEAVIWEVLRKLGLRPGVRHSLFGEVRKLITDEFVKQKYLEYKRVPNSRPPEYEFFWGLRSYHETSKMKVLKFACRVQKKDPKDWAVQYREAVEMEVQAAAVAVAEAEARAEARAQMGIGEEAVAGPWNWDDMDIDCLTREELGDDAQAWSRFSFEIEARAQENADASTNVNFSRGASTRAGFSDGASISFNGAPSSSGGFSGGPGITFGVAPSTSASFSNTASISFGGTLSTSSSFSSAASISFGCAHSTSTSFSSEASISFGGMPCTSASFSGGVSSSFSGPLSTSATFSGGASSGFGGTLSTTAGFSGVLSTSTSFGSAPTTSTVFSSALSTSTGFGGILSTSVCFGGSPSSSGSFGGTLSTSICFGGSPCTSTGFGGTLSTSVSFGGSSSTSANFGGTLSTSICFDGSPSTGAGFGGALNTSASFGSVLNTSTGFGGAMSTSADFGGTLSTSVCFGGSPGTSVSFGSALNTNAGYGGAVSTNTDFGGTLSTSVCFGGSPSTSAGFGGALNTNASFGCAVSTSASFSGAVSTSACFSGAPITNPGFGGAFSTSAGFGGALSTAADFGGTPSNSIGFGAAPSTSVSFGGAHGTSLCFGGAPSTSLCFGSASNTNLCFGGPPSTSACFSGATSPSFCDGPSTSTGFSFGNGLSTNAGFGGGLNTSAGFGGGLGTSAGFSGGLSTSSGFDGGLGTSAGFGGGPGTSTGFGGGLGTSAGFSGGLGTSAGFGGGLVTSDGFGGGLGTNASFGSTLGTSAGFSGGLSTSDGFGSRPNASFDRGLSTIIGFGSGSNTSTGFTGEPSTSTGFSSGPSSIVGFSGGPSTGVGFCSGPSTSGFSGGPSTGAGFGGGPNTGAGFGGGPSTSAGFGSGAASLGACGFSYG
Description: as §1, §2

FLJ31146-derived protein = target: T3, FLJ31146-derived protein (Homo sapiens, UniProt Q9BSE4); experiment: Biacore S51 surface plasmon resonance interaction analysis with FLJ31146-derived protein; format: binding
T3 construct: fused on or other part: N-terminal histidine tag and FLAG tag, with Gateway linker residues
T3 sequence (Q9BSE4 1-406): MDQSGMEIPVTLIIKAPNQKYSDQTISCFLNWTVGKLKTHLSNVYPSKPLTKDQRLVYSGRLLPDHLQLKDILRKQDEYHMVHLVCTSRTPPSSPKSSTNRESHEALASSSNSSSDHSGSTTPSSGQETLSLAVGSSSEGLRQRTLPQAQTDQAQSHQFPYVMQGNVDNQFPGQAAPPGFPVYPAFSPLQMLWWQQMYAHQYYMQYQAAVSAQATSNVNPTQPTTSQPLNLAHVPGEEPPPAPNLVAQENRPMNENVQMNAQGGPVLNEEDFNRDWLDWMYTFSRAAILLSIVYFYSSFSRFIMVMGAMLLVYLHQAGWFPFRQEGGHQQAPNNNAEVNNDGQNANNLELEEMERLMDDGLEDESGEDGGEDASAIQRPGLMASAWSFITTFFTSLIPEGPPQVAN
Description: as §1, §2

FLJ10368-derived protein = target: T4, FLJ10368-derived protein (Homo sapiens, UniProt Q9NUX5); experiment: Biacore S51 surface plasmon resonance interaction analysis with FLJ10368-derived protein; format: binding
T4 construct: fused on or other part: N-terminal histidine tag and FLAG tag, with Gateway linker residues
T4 sequence (Q9NUX5 1-634): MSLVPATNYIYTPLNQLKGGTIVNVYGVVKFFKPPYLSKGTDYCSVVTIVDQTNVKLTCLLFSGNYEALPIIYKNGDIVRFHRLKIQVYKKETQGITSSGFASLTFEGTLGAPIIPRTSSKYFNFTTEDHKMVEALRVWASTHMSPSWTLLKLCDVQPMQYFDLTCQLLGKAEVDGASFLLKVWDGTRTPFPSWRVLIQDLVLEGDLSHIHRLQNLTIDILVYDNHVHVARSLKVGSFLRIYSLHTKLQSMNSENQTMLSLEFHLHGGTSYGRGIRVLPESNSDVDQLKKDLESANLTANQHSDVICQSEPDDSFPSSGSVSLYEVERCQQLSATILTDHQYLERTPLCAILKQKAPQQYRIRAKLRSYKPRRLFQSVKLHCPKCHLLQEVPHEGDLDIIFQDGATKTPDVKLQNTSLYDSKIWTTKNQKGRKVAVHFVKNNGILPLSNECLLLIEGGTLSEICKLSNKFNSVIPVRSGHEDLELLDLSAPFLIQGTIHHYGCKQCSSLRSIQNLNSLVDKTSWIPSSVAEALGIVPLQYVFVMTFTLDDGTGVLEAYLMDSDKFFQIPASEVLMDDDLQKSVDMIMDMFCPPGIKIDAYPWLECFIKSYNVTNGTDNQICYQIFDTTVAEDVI
Description: as §1, §2

FLJ12389-derived protein = target: T5, FLJ12389-derived protein (Homo sapiens, UniProt Q86V21); experiment: Biacore S51 surface plasmon resonance interaction analysis with FLJ12389-derived protein; format: binding
T5 sequence (Q86V21 1-672): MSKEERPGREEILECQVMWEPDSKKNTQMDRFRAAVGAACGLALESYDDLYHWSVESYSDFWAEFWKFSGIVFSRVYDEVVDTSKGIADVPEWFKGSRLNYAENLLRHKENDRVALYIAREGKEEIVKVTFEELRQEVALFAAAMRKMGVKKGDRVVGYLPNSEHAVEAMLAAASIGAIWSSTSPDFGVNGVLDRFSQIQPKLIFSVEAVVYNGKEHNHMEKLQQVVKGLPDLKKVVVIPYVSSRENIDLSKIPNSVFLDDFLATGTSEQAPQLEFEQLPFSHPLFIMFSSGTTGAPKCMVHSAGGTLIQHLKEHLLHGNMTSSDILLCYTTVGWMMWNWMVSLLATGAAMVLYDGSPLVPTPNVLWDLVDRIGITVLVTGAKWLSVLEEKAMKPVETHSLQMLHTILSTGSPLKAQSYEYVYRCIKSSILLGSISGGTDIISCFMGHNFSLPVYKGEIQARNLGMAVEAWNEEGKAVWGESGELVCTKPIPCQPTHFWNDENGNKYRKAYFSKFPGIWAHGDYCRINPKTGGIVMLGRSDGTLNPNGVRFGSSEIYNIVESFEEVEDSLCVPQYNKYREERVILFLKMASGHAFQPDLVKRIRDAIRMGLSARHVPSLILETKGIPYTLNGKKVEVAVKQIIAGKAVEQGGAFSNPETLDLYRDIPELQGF
Description: as §1, §2

CC[C@@]1(O)C[C@H](O[C@H]2C[C@H](N(C)C)[C@H](O[C@H]3C[C@H](O)[C@H](O[C@H]4CCC(=O)[C@H](C)O4)[C@H](C)O3)[C@H](C)O2)c2c(cc3c(c2O)C(=O)c2c(O)cccc2C3=O)[C@H]1C(=O)OC [aclarubicin]
Kd (FLJ12514-derived protein): 6.11 µM | interaction with the protein (dose-dependent binding amount, saturation at high doses) (FLJ12514-derived protein): specifically interact

CC1=C(C(=O)O)N2C(=O)[C@@H](NC(=O)[C@H](N)c3ccccc3)[C@H]2SC1 [cephalexin]
Kd (FLJ12502-derived protein): 5.98 µM | interaction with the protein (dose-dependent binding amount, saturation at high doses) (FLJ12502-derived protein; FLJ12502-derived protein, Biacore S51): specifically interact | interaction with the protein (dose-dependent binding amount, saturation at high doses) (FLJ14583-derived protein): specifically interact | interaction with the protein (dose-dependent binding amount, saturation at high doses) (FLJ31146-derived protein): specifically interact

COC(=O)[C@H]1[C@H]2C[C@@H]3c4[nH]c5cc(OC)ccc5c4CCN3C[C@H]2C[C@@H](OC(=O)c2cc(OC)c(OC)c(OC)c2)[C@@H]1OC [reserpine]
interaction with the protein (dose-dependent binding amount, saturation at high doses) (FLJ10368-derived protein): specifically interact

c1ccc2[nH]c(-c3cscn3)nc2c1 [thiabendazole]
interaction with the protein (dose-dependent binding amount, saturation at high doses) (FLJ10368-derived protein): specifically interact | interaction with the protein (dose-dependent binding amount, saturation at high doses) (FLJ12389-derived protein): specifically interact | interaction with the protein (dose-dependent binding amount, saturation at high doses) (FLJ12514-derived protein): specifically interact
